From patent US20020151588A1, “Dissociated glucocorticoid receptor antagonists for the treatment of glucocorticoid associated side effects” (priority 2000, published 2002) come the findings set out here.

The subject of data set [1] is PMA-induced neutrophils influx in mice ear. Nature of the data set: PMA-induced ear edema in mice (myeloperoxidase). The class given is in vivo. As to conditions: for Myeloperoxidase (treated-untreated ear) ± S.E.M.: 24 hours after PMA. The procedure: (§1) Female albino mice (Han:NMRI) obtained form Harlan and weighing about 20-25 g were used. The animals were provided with standardized pellet diet (Altromin 8013) and had tap water freely available. The animals were accommodated in a climate room with a 12-hour light/dark cycle and kept in groups.
(§2) All test compounds were administered orally (0.2 ml/10 g body weight (bw) ) in a dose of 100 mg/kg p.o. The compounds were “dissolved” in 0.2% hydroxypropylmethylcellulose and olive oil mixed 1:1 (v/v).
Mice were lightly anaesthetized by ether and 50 ng PMA (5 μl) were applied to each side of the left ear. […] The animals were sacrificed by ether 24 hours later, and a biopsy (diameter 8 mm) was punched out from both ears to assess an increase of neutrophils in the left ear compared with the right ear. Tissue samples were homogenized in 1 ml 0.5% HTAB (Hexadecyl-trimethyl-ammonium-bromide; Sigma H-5882; dissolved in 0.05 M phosphate buffer, pH 6.0) using a tissue homogenizer (IKA-Ultraturrax T5; Janke & Kunkel, Staufen/Breisgau) at 30000 RPM for 15 seconds under cooling. After centrifugation (16000 g, 5 min) the supernatants were frozen until processing for myeloperoxidase (MPO). Determination in the supernatants for MPO, a neutrophil marker enzyme, served as a quantitative index for the neutrophil accumulation. MPO was determined spectrophotometrically at 450 nm using a microplate version of the method of Bradley (1982) and microplate reader (Vmax; Molecular Devices, Palo Alto) suitable for kinetic measurements. The values are expressed as increase in milli optical densities per min (m O.D./min) (Table 1a and b).

In data set [2] the test system is tyrosine aminotransferase (TAT) in mice liver. Nature of the data set: TAT induction in mice liver. The class given is in vivo. The note with it: for TAT-induction ± S.E.M.: mice liver, 8 hours after administration. On the procedure:
as §1, §2
Eight hours after compounds were administered the animals were killed and a punch (diameter 8 mm) was taken from the liver and immediately frozen in liquid nitrogen. The weighed liver punches were thawed for 3 minutes and homogenized after the addition 1 ml of phosphate buffer (pH 7.6) using a tissue homogenizer as described above. After centrifugation the supernatants were frozen at −20° C. until processing. For processing the samples were thawed and protein was determined using a kit employing 96 well microtiterplates commercially available from Fa. Pierce (No 23225). The activity of tyrosineaminotransferase (TAT) was determined in the supernatant, which was diluted 1:100 in phosphate buffer. The reaction is started by the addition of tyrosine in pyrodoxal-5-phosphate and α ketoglutaric acid at pH 7.6 and incubated for 30 minutes at 37° C. The reaction is stopped by the addition of 10 M KOH and a further incubation of 30 minutes is allowed for the formation of p-hydroxy-benzylaldehyde, which can be measured at 492 nm using a microplate reader. The values (optical densities) are calculated with respect to the protein concentration (O.D./mg protein) (Table 1a and b).

The target in the next data set is recombinant human GR (Homo sapiens, UniProt P04150). The data set is described as follows: GR Competitive Binding Assay. As to conditions: after correction for compound determined to be in solution by HPLC analysis; read-out: IC50, competition with [6,7-3H(N)]-dexamethasone for binding to GR. The procedure:
All procedures were performed at 4° C.
Test compounds were dissolved to 1 mM in neat DMSO and then further diluted to 10×assay concentration in assay buffer supplemented with 10% v/v DMSO.

Data set [3] concerns tyrosine aminotransferase (TAT) in rat hepatoma cells. The data set is described as follows: Induction of tyrosine aminotransferase (TAT) in H4-II-E-C3 rat hepatoma cells. Format: cell-based. The procedure:
H4-II-E-C3 rat hepatoma cells were incubated overnight in 96 well plates (20,000 cells/200 μl/well) in EMEM medium containing 10% heat inactivated FBS (fetal bovine serum). […] Control cells were treated with 0.1% DMSO. After 18 hours, the cells were lysed in a buffer containing 0.1% Triton X-100 and the TAT activity was measured in a photometric assay using tyrosine and -keto g lutarate as substrates (FIG. 3a).
The steroidal not dissociated GR/PR antagonist RU486 was used as control (FIG. 3b).

For data set [4], the system named is MMTV-(mouse mammary tumor virus) promoter in HeLa cells. Nature of the data set: Stimulation of MMTV promoter (luciferase) in HeLa cells. The class given is cell-based. The procedure: HeLa cells stably co-transfected with the pHHLuc-construct containing a fragment of the MMTV-LTR (−200 to +100 relative to the transcription start site) cloned in front of the luciferase gene and the pcDNA3.1 plasmid (Invitrogen) constitutively expressing the resistance for the antibioticum geneticin. Clones with best induction of the MMTV-promoter were selected and used for further experiments.
Cells were cultured overnight in DMEM medium w/o phenol red supplemented with 3% CCS (charcoal treated calf serum) and then transferred to 96 well plates (20,000 cells/100 μl/well). […] Control cells were treated with DMSO only. Twenty four hours later the cells were lysed with cell lysis reagent (Promega, Cat. No. E1531), luciferase assay reagent (Promega, Cat. No. E1501) was added and the flash luminescence was measured using a BMG luminometer (FIG. 4a).
The steroidal non-selective GR/PR antagonist RU486 was used as control (FIG. 4b).

The subject of data set [5] is LPS-induced IL-8 secretion in U-937 cells. Nature of the data set: GR-mediated inhibition of LPS-induced IL-8 secretion in U-937 cells. The class given is cell-based, human. The note with it: 1 μg/ml LPS. On the procedure: U-937 cells were incubated for 4 days in RPM11640 medium containing 10% CCS (charcoal treated calf serum). […] Control cells were treated with 0.1% DMSO.
Eighteen hours later the IL-8 concentration in the cell supernatant was measured by ELISA, using the “OptEIA human IL-8 set” (Pharmingen, Cat.No. 2654KI) (FIG. 5a).
The steroidal not dissociated GR/PR antagonist RU486 was used as control (FIG. 5b).

Data set [6] deals with ICAM-promoter in HeLa cells. Nature of the data set: Inhibition of TNF-α induced activation of the ICAM-promoter (luciferase) in HeLa cells. The class given is cell-based, human. As to conditions: 20 ng/ml TNF-α. The procedure:
HeLa cells were stably co-transfected with a construct containing a 1.3 kb fragment of the human ICAM-promoter (−1353 to −9 relative to the transcription start site, cloned in front of the luciferase gene and the pcDNA3.1 plasmid (Invitrogen) which constitutively express the resistance for the antibioticum geneticin. Clones with best induction of the ICAM-promoter were selected and used for further experiments. Cells were transferred to 96 well plates (20,000 cells/100 μl/well) in DMEM medium supplemented with 3% CCS. On the following day the activation of the ICAM-promoter was induced by addition of 20 ng/ml recombinant TNF-α (R&D System, Cat. No. 210-TA). […] Control cells were treated with DMSO only. Twenty four hours later the cells were lysed with cell lysis reagent (Promega, Cat. No. E1531), luciferase assay reagent (Promega, Cat. No. E1501) was added and flash luminescence was measured using a BMG luminometer (FIG. 6a).
The steroidal not dissociated GR/PR antagonist RU486 was used as control (FIG. 6b).

The test system of data set [7] is croton-oil induced ear edema, carrageenan-induced paw edema; systemic side-effects of glucocorticoids. Nature of the data set: In vivo co-administration with dexamethasone or prednisolone in inflammation models.
Where [8] appears, read: co-administered with prednisolone, each 100 mg/kg p.o.

Several values for one entry are separate records, joined by “and”; a condition that tells them apart may be missing. Equal values may be shown once.

Sequence of recombinant human GR (P04150 whole entry, other chains not shown): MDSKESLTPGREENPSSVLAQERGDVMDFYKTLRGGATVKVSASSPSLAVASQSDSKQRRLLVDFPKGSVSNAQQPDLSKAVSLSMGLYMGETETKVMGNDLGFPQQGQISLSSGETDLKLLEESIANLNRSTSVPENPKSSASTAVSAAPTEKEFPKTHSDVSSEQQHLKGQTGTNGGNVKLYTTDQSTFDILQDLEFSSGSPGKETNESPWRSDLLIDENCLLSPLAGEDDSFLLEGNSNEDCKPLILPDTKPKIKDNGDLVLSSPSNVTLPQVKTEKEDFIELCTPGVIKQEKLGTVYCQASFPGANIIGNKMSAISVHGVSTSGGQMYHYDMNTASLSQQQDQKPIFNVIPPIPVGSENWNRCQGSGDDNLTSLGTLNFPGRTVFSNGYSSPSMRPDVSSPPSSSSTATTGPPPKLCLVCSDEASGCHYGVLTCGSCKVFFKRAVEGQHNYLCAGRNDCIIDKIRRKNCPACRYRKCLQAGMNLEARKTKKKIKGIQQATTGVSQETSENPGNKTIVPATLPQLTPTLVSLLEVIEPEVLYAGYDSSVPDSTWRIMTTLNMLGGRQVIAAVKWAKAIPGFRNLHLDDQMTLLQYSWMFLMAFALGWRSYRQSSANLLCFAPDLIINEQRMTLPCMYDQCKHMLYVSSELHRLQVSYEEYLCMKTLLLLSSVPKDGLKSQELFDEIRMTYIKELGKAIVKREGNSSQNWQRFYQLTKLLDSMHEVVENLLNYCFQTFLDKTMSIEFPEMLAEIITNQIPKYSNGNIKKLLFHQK

For `C[C@]12C=CC(=O)C=C1CC[C@@H]1[C@@H]2[C@@H](O)C[C@@]2(C)[C@H]1CC[C@]2(O)C(=O)CO` [Prednisolone], in data set [1] (compound alone 100 mg/kg p.o.), the “Myeloperoxidase (treated-untreated ear) ± S.E.M.” value (“Myeloperoxidase” below) was 48 ± 13 mO.D./min and 34 ± 17 mO.D./min. The “TAT-induction ± S.E.M.” value in data set [2] (compound alone 100 mg/kg p.o.) is 17.75 ± 0.86 O.D./mg protein and 13.45 ± 0.93 O.D./mg protein.
Usually IC50 stands for the concentration that inhibits the measured activity by half. As for `COc1cc(C(=O)c2cccc(C)c2)c(Oc2c(Br)cc(CC(=O)O)cc2Br)cc1C(C)C` [EXRS1370SE], on recombinant human GR, the IC50 is 69 nM. The “antagonistic activity on dexamethasone-induced TAT-induction” value in data set [3] (rat hepatoma cells pre-stimulated with dexamethasone 3e-9 mol/l) was “shows antagonistic activity”. Moreover, the “agonistic activity in induction of tyrosine aminotransferase (TAT)” value in data set [3] (rat hepatoma cells, 18 hours) is listed as “does not show agonistic activity”. Moreover, in data set [4] (HeLa cells pre-stimulated with 3e-8 mol/l dexamethasone), the “antagonistic activity in stimulation of MMTV promoter” value was “antagonistic activity”. In addition, the “agonistic activity in stimulation of MMTV promoter” value in data set [4] (HeLa cells, 24 hours) is on record as “no agonistic”. For the same compound, the “agonistic activity in GR-mediated inhibition of LPS-induced IL-8 secretion” value in data set [5] (18 hours) is on record as “no agonistic”. The “antagonistic activity in GR-mediated inhibition of LPS-induced IL-8 secretion” value in data set [5] (IL-8 secretion inhibited with 3e-8 mol/l dexamethasone) is listed as “no antagonistic activity”. Moreover, in data set [6] (24 hours), the “agonistic activity in inhibition of TNF-α induced activation of the ICAM-promoter” value was “no agonistic”. The “antagonistic activity in inhibition of TNF-α induced activation of the ICAM-promoter” value in data set [6] (inhibited with 3e-8 mol/l dexamethasone) is on record as “no antagonistic activity”. Further, the “antagonism of the anti-inflammatory effect of prednisolone in the ear inflammation model” value in data set [1] (100 mg/kg p.o.) is “does not significantly antagonize”. The “Myeloperoxidase” value in data set [1] (setting [8]) turned out to be 140 ± 47 mO.D./min; in data set [1] (compound alone 100 mg/kg p.o.), 443 ± 90 mO.D./min. For the same compound, the “antagonism of the prednisolone-induced induction of tyrosine aminotransferase in liver” value in data set [2] (100 mg/kg p.o., mice) is “can antagonize significantly”. Besides, the results for the “TAT-induction ± S.E.M.” value in data set [2] (setting [8]) and in data set [2] (compound alone 100 mg/kg p.o.) were 12.00 ± 1.26 O.D./mg protein and 3.85 ± 0.43 O.D./mg protein, respectively. Also, the “systemic side-effect of the glucocorticoids (TAT in liver, blood glucose, free fatty acids level, renal function)” value in data set [7] (co-administration with dexamethasone or prednisolone) is on record as “no/reduced a systemic side-effect”. In addition, the “anti-inflammatory activity of the glucocorticoid on co-administration” value in data set [7] (co-administration with dexamethasone or prednisolone in inflammation models) is recorded as “retain the anti-inflammatory activity of the glucocorticoid”.
With `CC#C[C@]1(O)CC[C@H]2[C@@H]3CCC4=CC(=O)CCC4=C3[C@@H](c3ccc(N(C)C)cc3)C[C@@]21C` [Mifepristone, 11-[4-Dimethylamino]phenyl-17-hydroxy-17[1-propynyl]estra-4,9-dien-3-one], the “Myeloperoxidase” value is recorded as 1565 ± 435 mO.D./min in data set [1] (setting [8]) and 931 ± 261 mO.D./min in data set [1] (compound alone 100 mg/kg p.o.). The “TAT-induction ± S.E.M.” value in data set [2] (setting [8]) came out at 6.60 ± 0.38 O.D./mg protein; in data set [2] (compound alone 100 mg/kg p.o.), 4.62 ± 0.36 O.D./mg protein.
